Measured values as given in patent publication US20260191925A2, “TISSUE OCCLUDING AGENT COMPRISING AN IEIKIEIKIEIKI PEPTIDE” (3-D Matrix, Ltd., priority 2008, published 2026).
Entries after “also recorded” stand apart in the source; their conditions may differ. No end group written: not given here.

Key:
rabbit hepatic incision = assay: Rabbit hepatic transection model (Example 9); assay type: in vivo; details: 1% solution, 1 minute after treatment, after rinsing with physiological saline
Protocol: (§1) The rabbits were subcutaneously administered (3 mg/kg) Celactar 2% injection (2.0 g content as xylazine in 100 mL, product of Bayer Ltd.), and then ketamine (50 mg content as ketamine in 1 mL, product of Fuji Chemical Industries, Ltd.) was intravenously administered (10 mg/kg) for anesthesia.
The rabbits were laparotomized by median section and the hepatic left lobes were exposed and sharply transected with a scalpel to about 1 cm to induce hemorrhage.
After confirming exudative hemorrhage from the incision, the blood was removed as much as possible with gauze and the hepatic incision was treated with aqueous peptide solution.
The gelled aqueous peptide solution was removed 1 minute after treatment using physiological saline, and the presence of any hemorrhage from the hepatic incision was visually confirmed.

[1] = Self-assembly of aqueous peptide solution with rabbit bile (Example 10); assay type: physicochemical; details: covered with rabbit bile, approximately 30 seconds
Protocol: as §1
The rabbits were laparotomized by median section, and bile was sampled from the gallbladder using a 23 G injection needle (Terumo Corp.).
Droplets of each aqueous peptide solution before self-assembly were prepared (diameter: approximately 5-8 mm), and the sampled bile was gently poured thereover so as to cover the aqueous peptide solution.

resected liver surface = assay: Rabbit partial liver resection model (Example 2); assay type: in vivo; details: for hemorrhage from cut surface after rinsing with physiological saline: FIG. 2; for rabbits showing complete hemostasis: partial liver resection
Protocol: as §1
The rabbits were laparotomized by median section, and the hepatic left or right lobe was sharply excised to a size of approximately 5 cm width×3 cm length from the edge using a scalpel, to prepare a liver section.
Blood flow was released 1-2 minutes after treatment, the aqueous peptide solution that was gelled was removed by physiological saline, and the presence of any hemorrhage from the resected liver surface s was visually confirmed.
The resected liver surface in which a hemostatic effect was seen were fixed with 20% formalin and histopathologically evaluated by HE staining.

rabbit abdominal aorta [2] = assay: Rabbit abdominal aorta injection needle perforation model (Example 1); assay type: in vivo; details: for hemostatic effect (hemorrhage visually examined): after release of clamp
Protocol: as §1
(§2) The rabbits were laparotomized by median section. Approximately 10 cm of the abdominal aorta and portal vein stem was exposed, each blood vessel was ablated from the surrounding tissue, and the abdominal aorta was punctured with a 23 G injection needle (Terumo Corp.) while the portal vein stem was punctured with a 26 G injection needle (Terumo Corp.).
(§3) Upon confirming hemorrhage, blood flow at the peripheral end and central end was clamped with a hemostatic clamp, and after removing the hemorrhaged blood with physiological saline and gauze, it was immediately treated with the aqueous peptide solution.
(§4) After 1-2 minutes of treatment, blood flow was released and the presence of hemorrhage from the puncture site was visually examined.

rabbit portal vein stem [3] = assay: Rabbit portal vein stem injection needle perforation model (Example 1); assay type: in vivo
Protocol: as §1, §2, §3, §4

[4] = system: rabbit gastric mucosa incision; assay: Rabbit gastric mucosa incision model (Example 8); assay type: in vivo; details: 1 minute after treatment, after rinsing with physiological saline
Protocol: as §1
The rabbits were laparotomized by median section and the stomachs were incised, after which the gastric mucosa was exposed and sharply incised with a scalpel to about 1 cm to induce hemorrhage.
After confirming blood oozing from the incision, the blood was removed as much as possible with gauze and the gastric mucosa incision was treated with aqueous peptide solution.
The gelled aqueous peptide solution was removed 1 minute after treatment using physiological saline, and the presence of any hemorrhage from the gastric mucosa incision was visually confirmed.

rabbit portal vein stem [5] = assay: Rabbit portal vein stem injection needle perforation model, sugar-containing solutions (Example 4); assay type: in vivo
Protocol: as §1
as §2, with “with a 26 G, 25 G or 23 G” for “with a 23 G”
(§5) After 1-2 minutes of treatment, blood flow was released and the presence of hemorrhage was visually examined.

rabbit bile duct wall = assay: Rabbit bile duct injection needle perforation model (Example 6); assay type: in vivo; details: 26 G needle
Protocol: as §1
The rabbits were laparotomized by median section. Approximately 10 cm of the bile duct was exposed, and after ablation from the surrounding tissue, the bile duct was punctured with a 26 G injection needle.
After confirming discharge of bile and continuous flow of bile, the bile flow was blocked with a hemostatic clamp.
The leaked bile was removed with physiological saline and gauze, and then treated with 3% aqueous peptide solution.
After 2 minutes of treatment, bile flow blockage was released and the presence of bile flow from the puncture site was visually examined.

rat portal vein = assay: Rat portal vein embolization (Example 11); assay type: in vivo; details: 4 mL injected through portal vein stem, liver extracted after 5 minutes, HE staining
Protocol: The rats were subjected to inhalation anesthesia with diethyl ether (Kishida Chemical Co., Ltd.).
The rats were laparotomized by median section and the portal veins were exposed.
A 4 mL portion of aqueous peptide solution was injected through the portal vein stem with a 26 G injection needle (Terumo Corp.), and hemorrhage from the puncture site was immediately arrested with aqueous peptide solution.
The livers were extracted 5 minutes after injection and immediately fixed with 10% formalin (Wako Pure Chemical Industries, Ltd.).
The tissue was stained with haematoxylin eosin (HE) 1 week after fixing.

[6] = system: canine intravesical tumor / vesical mucosa; assay: Canine intravesical tumorectomy, submucosal injection (Example 7); assay type: in vivo, dog
Protocol: Canine intravesical tumorectomy was carried out under general anesthesia management, by the following procedure.
After hypogastric incision with an electrocautery scalpel (Erbe, Inc.), the electrocautery scalpel was used for incision of the bladder to expose the intravesical tumor (pedunculated tumor with a base site diameter of approximately 0.5 cm that is elevated from the vesical mucosa).
3% Aqueous peptide solution was submucosally injected around the tumor base in 4 injections of 0.5 mL each, and elevation of the tumor on the mucosa was confirmed.
After elevating the tumor, the tumor was excised with an electronic scalpel.
The time from aqueous peptide solution injection to complete tumor excision was approximately 2 minutes.

[7] = system: abdominal aorta of rabbits with reduced blood clotting function; assay: Abdominal aorta injection needle perforation model of rabbits with suppressed blood clotting function (heparin) (Example 3); assay type: in vivo, rabbit; details: for Observations: heparin 1,000 units
Protocol: as §1
The rabbits were laparotomized by median section. Approximately 10 cm of the abdominal aorta was exposed, the blood vessel was ablated from the surrounding tissue, and the vessel was punctured with a 26 G, 25 G or 23 G injection needle (Terumo Corp.).
Upon confirming hemorrhage, blood flow at the peripheral end and center end was clamped with a hemostatic clamp, and after removing the hemorrhaged blood with physiological saline and gauze, it was immediately treated with the aqueous peptide solution.
as §5

rabbit abdominal aorta [8] = assay: Rabbit abdominal aorta injection needle perforation model, sugar-containing solutions (Example 4); assay type: in vivo
Protocol: as §1
as §2, with “with a 26 G, 25 G or 23 G” for “with a 23 G”
as §5

1% IEIK9 aqueous peptide solution: 1% aqueous peptide solution, peptide sequence IEIK9 (SEQ ID NO: 4) (Ac-IEIKIEIKI)
hemostatic effect (hemorrhage from hepatic incision) (rabbit hepatic incision): hemorrhage observed from incision site
hemostatic effect (hemorrhage from hepatic incision) (rabbit hepatic incision; listed as IEIK9 aqueous peptide solution): no hemostatic effect
bile-induced self-assembly [1]: virtually no self-assembly seen

Ac-(RADA)4-NH2 [1% aqueous peptide solution] (Ac-RADARADARADARADA-NH2)
hemorrhage from cut surface after rinsing with physiological saline (resected liver surface): no hemorrhage observed from cut surface
rabbits showing complete hemostasis (resected liver surface): two of two
hemostatic effect (hemorrhage visually examined) (rabbit abdominal aorta [2]): hemostasis was not complete; also recorded: resumed hemorrhage following declamp
hemostatic effect (hemorrhage visually examined) (rabbit portal vein stem [3]): persistent phleborrhagia

Ac-(IEIK)3I-CONH2 [1% IEIK13 aqueous peptide solution]
hemostatic effect (hemorrhage from hepatic incision) (rabbit hepatic incision): no hemorrhage observed from incision site
hemostatic effect (hemorrhage from hepatic incision) (rabbit hepatic incision; listed as IEIK13 aqueous peptide solution): no hemorrhage was observed
bile-induced self-assembly [1]: self-assembly confirmed

Ac-(RADA)4-NH2 (Ac-RADARADARADARADA-NH2) [2% aqueous peptide solution]
hemorrhage from gastric mucosa incision [4]: no hemorrhage from incision site
hemostatic effect (compared between the solutions) (rabbit portal vein stem [5]; portal vein stem 26 G needle perforation): equivalent
Observation (rabbit portal vein stem [5]; portal vein stem, 26 G needle): Complete

Ac-(RADA)4-NH2 [3% aqueous peptide solution] (Ac-RADARADARADARADA-NH2)
hemorrhage from cut surface after rinsing with physiological saline (resected liver surface): hemorrhage observed from cut surface
rabbits showing complete hemostasis (resected liver surface): 1 of 4
Observations (rabbit bile duct wall): Aqueous peptide solution gelled
bile duct wall occlusion effect (bile leakage) (rabbit bile duct wall): complete bile duct wall occlusion effect; also recorded: bile leakage of (b) not observed around bile duct
portal vein embolization (rat portal vein): Embolization of portal vein confirmed
rabbits demonstrating complete hemostasis (rabbit abdominal aorta [2]): two of two
hemostatic effect (hemorrhage visually examined) (rabbit abdominal aorta [2]): completely hemorrhage-arrested blood vessel
hemorrhage at excision site after tumor excision ([6]; excision by electrocautery): no hemorrhage at excision site after tumor excision
hemorrhage at excision site during tumor excision ([6]; excision by electrocautery): no hemorrhage at excision site during tumor excision
mucosal swelling (elevation) of excision site ([6]; submucosal injection, 4 injections of 0.5 mL): swelling of affected area confirmed
cases demonstrating complete hemostasis (rabbit portal vein stem [3]): two of two
Observations ([7]; 23 G needle): Complete hemostasis
Observations ([7]; 25 G needle): Complete hemostasis
Observations ([7]; 26 G needle): Complete hemostasis
hemostatic effect (hemorrhage visually examined) ([7]; heparin-treated rabbits, 26 G, 25 G and 23 G needle perforation): complete hemostasis; also recorded: perivascular hemorrhage of (b) not seen after declamp
Observation (rabbit abdominal aorta [8]; 23 G needle): Complete
Observation (rabbit abdominal aorta [8]; 25 G needle): Complete
Observation (rabbit abdominal aorta [8]; 26 G needle): Complete

Ac-(KLDL)3-CONH2 (Ac-KLDLKLDLKLDL-NH2) [1% KLD aqueous peptide solution]
hemostatic effect (hemorrhage from hepatic incision) (rabbit hepatic incision): no hemorrhage observed from incision site
hemostatic effect (hemorrhage from hepatic incision) (rabbit hepatic incision; listed as KLD aqueous peptide solution): no hemorrhage was observed
bile-induced self-assembly [1]: self-assembly confirmed

Ac-(RADA)4-NH2 [1.5% PuraMatrix aqueous peptide solution]
bile-induced self-assembly [1]: self-assembly confirmed
